From ChEMBL document CHEMBL3600371, “Design and synthesis of imidazole N-H substituted amide prodrugs as inhibitors of hepatitis C virus replication” (Bioorg Med Chem Lett, 2015)

What was measured:
Hepatitis C virus [1] = experiment: Antiviral activity against HCV genotype 1b replicon infected in human HuH7 cells assessed as inhibition of viral RNA replication by luciferase reporter assay; format: functional, organism-based, Hepacivirus hominis; conditions: Huh-7
Hepatitis C virus [2] = experiment: Antiviral activity against HCV genotype 1 in patient assessed as virological response rate; format: functional, Hepacivirus hominis
[3] = Stability of the compound in water at pH 7; format: physicochemical; conditions: buffer
Rattus norvegicus [4] = experiment: Half life in Sprague-Dawley rat assessed as daclatasvir at 5 mg/kg, po; format: ADME, organism-based; conditions: in vivo
Rattus norvegicus [5] = experiment: Cmax in Sprague-Dawley rat assessed as daclatasvir at 5 mg/kg, po; format: ADME, organism-based; set-up: dose 5 mg/kg, route oral; conditions: in vivo
Rattus norvegicus [6] = experiment: Mean residence time in Sprague-Dawley rat assessed as daclatasvir at 5 mg/kg, po; format: ADME, organism-based; conditions: in vivo
Rattus norvegicus [7] = experiment: AUC (0 to 8 hrs) in Sprague-Dawley rat assessed as daclatasvir at 5 mg/kg, po; format: ADME, organism-based; set-up: time < 8 hr, dose 5 mg/kg, route oral; conditions: in vivo
[8] = Stability of the compound in water at pH 2; format: physicochemical; conditions: buffer
[9] = Half life in blood (unknown origin); format: ADME, tissue-based
Rattus norvegicus [10] = experiment: Tmax in Sprague-Dawley rat assessed as daclatasvir at 5 mg/kg, po; format: ADME, organism-based; conditions: in vivo
Rattus norvegicus [11] = experiment: Prodrug conversion in Sprague-Dawley rat assessed as formation of daclatasvir at 5 mg/kg, po measured over 9 hrs; format: ADME, organism-based; conditions: in vivo
Rattus norvegicus [12] = experiment: AUC (0 to infinity) in Sprague-Dawley rat assessed as daclatasvir at 5 mg/kg, po; format: ADME, organism-based; set-up: dose 5 mg/kg, time infinity, route oral; conditions: in vivo
[13] = Cmax in Sprague-Dawley rat at 5 mg/kg, po; format: ADME, organism-based; set-up: dose 5 mg/kg, route oral; conditions: in vivo
Hepatitis C virus [14] = experiment: microbe, parasite or virus in culture; conditions: JFH-1, Huh-7
Description: Antiviral activity against HCV genotype 1b JFH-1 infected in human HuH7 cells assessed as inhibition of viral replication

[15] = AUC (0 to infinity) in Sprague-Dawley rat at 5 mg/kg, po; format: ADME, organism-based; set-up: dose 5 mg/kg, route oral, time infinity; conditions: in vivo
[16] = Tmax in Sprague-Dawley rat at 5 mg/kg, po; format: ADME, organism-based; conditions: in vivo
[17] = Mean residence time in Sprague-Dawley rat at 5 mg/kg, po; format: ADME, organism-based; conditions: in vivo
[18] = AUC (0 to 8 hrs) in Sprague-Dawley rat at 5 mg/kg, po; format: ADME, organism-based; set-up: time < 8 hr, dose 5 mg/kg, route oral; conditions: in vivo
[19] = Half life in Sprague-Dawley rat at 5 mg/kg, po; format: ADME, organism-based; conditions: in vivo
[20] = Stability of the compound in blood (unknown origin); format: ADME, tissue-based
Rattus norvegicus [21] = experiment: Drug level in Sprague-Dawley rat treated with ((S,S)-5,5'-([1,1'-Biphenyl]-4,4'-diyl)bis(2-((S)-1-((S)-2-((methoxycarbonyl)amino)-3-methylbutanoyl)pyrrolidin-2-yl)-1H-imidazole-5,1-diyl))bis(2-oxoethane-2,1-diyl)diacetate at 5 mg/kg, po measured over 9 hrs; format: ADME, organism-based; conditions: in vivo

Structure (SMILES) | EC50 (Hepatitis C virus [1]) | further results
COC(=O)N[C@H](C(=O)N1CCC[C@H]1c1ncc(-c2ccc(-c3ccc(-c4cnc([C@@H]5CCCN5C(=O)[C@@H](NC(=O)OC)C(C)C)n4C(=O)OC)cc3)cc2)n1C(=O)OC)C(C)C | > 100000 nM | –
COC(=O)N[C@H](C(=O)N1CCC[C@H]1c1ncc(-c2ccc(-c3ccc(-c4cnc([C@@H]5CCCN5C(=O)[C@@H](NC(=O)OC)C(C)C)n4C(C)=O)cc3)cc2)n1C(C)=O)C(C)C | 12 nM | –
CCCCCC(=O)n1c(-c2ccc(-c3ccc(-c4cnc([C@@H]5CCCN5C(=O)[C@@H](NC(=O)OC)C(C)C)n4C(=O)CCCCC)cc3)cc2)cnc1[C@@H]1CCCN1C(=O)[C@@H](NC(=O)OC)C(C)C | 324 nM | –
COC(=O)N[C@H](C(=O)N1CCC[C@H]1c1ncc(-c2ccc(-c3ccc(-c4cnc([C@@H]5CCCN5C(=O)[C@@H](NC(=O)OC)C(C)C)n4C(=O)OCC(C)=O)cc3)cc2)n1C(=O)OCC(C)=O)C(C)C | > 100000 nM | –
NC(=O)c1ncn([C@@H]2O[C@H](CO)[C@@H](O)[C@H]2O)n1 [RIBAVIRIN] | – | Activity (Hepatitis C virus [2]): <50%
COC(=O)N[C@H](C(=O)N1CCC[C@H]1c1ncc(-c2ccc(-c3ccc(-c4cnc([C@@H]5CCCN5C(=O)[C@@H](NC(=O)OC)C(C)C)n4C(=O)Cc4ccccc4)cc3)cc2)n1C(=O)Cc1ccccc1)C(C)C | 687 nM | –
COC(=O)N[C@H](C(=O)N1CCC[C@H]1c1ncc(-c2ccc(-c3ccc(-c4cnc([C@@H]5CCCN5C(=O)[C@@H](NC(=O)OC)C(C)C)n4C(=O)OC(C)(C)C)cc3)cc2)n1C(=O)OC(C)(C)C)C(C)C | > 100000 nM | –
COC(=O)N[C@H](C(=O)N1CCC[C@H]1c1ncc(-c2ccc(-c3ccc(-c4cnc([C@@H]5CCCN5C(=O)[C@@H](NC(=O)OC)C(C)C)n4C(=O)COC(C)=O)cc3)cc2)n1C(=O)COC(C)=O)C(C)C | 0.08 nM | Stability [3]: Stable; t1/2 (Rattus norvegicus [4]): 2.93 h; Cmax (Rattus norvegicus [5]): 341 ng/mL; MRT (Rattus norvegicus [6]): 4.01 h; AUC (Rattus norvegicus [7]): 3330 ng·h/mL; Stability [8]: Stable; half-life [9]: < 0.5 h; Tmax (Rattus norvegicus [10]): 4.05 h; Drug metabolism (Rattus norvegicus [11]): metabolite_detected; AUC (Rattus norvegicus [12]): 3440 ng·h/mL
CCCCCCC(=O)n1c(-c2ccc(-c3ccc(-c4cnc([C@@H]5CCCN5C(=O)[C@@H](NC(=O)OC)C(C)C)n4C(=O)CCCCCC)cc3)cc2)cnc1[C@@H]1CCCN1C(=O)[C@@H](NC(=O)OC)C(C)C | 542 nM | –
CCCC(=O)n1c(-c2ccc(-c3ccc(-c4cnc([C@@H]5CCCN5C(=O)[C@@H](NC(=O)OC)C(C)C)n4C(=O)CCC)cc3)cc2)cnc1[C@@H]1CCCN1C(=O)[C@@H](NC(=O)OC)C(C)C | 85 nM | –
CCCOC(=O)n1c(-c2ccc(-c3ccc(-c4cnc([C@@H]5CCCN5C(=O)[C@@H](NC(=O)OC)C(C)C)n4C(=O)OCCC)cc3)cc2)cnc1[C@@H]1CCCN1C(=O)[C@@H](NC(=O)OC)C(C)C | > 100000 nM | –
COC(=O)N[C@H](C(=O)N1CCC[C@H]1c1ncc(-c2ccc(-c3ccc(-c4cnc([C@@H]5CCCN5C(=O)[C@@H](NC(=O)OC)C(C)C)n4C(=O)CCc4ccccc4)cc3)cc2)n1C(=O)CCc1ccccc1)C(C)C | 988 nM | –
COC(=O)N[C@H](C(=O)N1CCC[C@H]1c1ncc(-c2ccc(-c3ccc(-c4cnc([C@@H]5CCCN5C(=O)[C@@H](NC(=O)OC)C(C)C)n4C(=O)OC(C)C)cc3)cc2)n1C(=O)OC(C)C)C(C)C | > 100000 nM | –
COC(=O)N[C@H](C(=O)N1CCC[C@H]1c1nc(-c2ccc(-c3ccc(-c4c[nH]c([C@@H]5CCCN5C(=O)[C@@H](NC(=O)OC)C(C)C)n4)cc3)cc2)c[nH]1)C(C)C | – | Cmax [13]: 484 ng/mL; EC50 (Hepatitis C virus [14]): 0.028 nM; Stability [3]: Stable; AUC(0-inf) [15]: 3320 ng·h/mL; Stability [8]: Stable; Tmax [16]: 3.01 h; MRT [17]: 3.43 h; AUC(0-t) at 8 h [18]: 3210 ng·h/mL; half-life [19]: 1.66 h; Stability [20]: Stable; Drug metabolism (Rattus norvegicus [21]): metabolite_detected
COC(=O)N[C@H](C(=O)N1CCC[C@H]1c1ncc(-c2ccc(-c3ccc(-c4cnc([C@@H]5CCCN5C(=O)[C@@H](NC(=O)OC)C(C)C)n4C(=O)c4ccc(C)cc4)cc3)cc2)n1C(=O)c1ccc(C)cc1)C(C)C | 231 nM | –
CCC(=O)n1c(-c2ccc(-c3ccc(-c4cnc([C@@H]5CCCN5C(=O)[C@@H](NC(=O)OC)C(C)C)n4C(=O)CC)cc3)cc2)cnc1[C@@H]1CCCN1C(=O)[C@@H](NC(=O)OC)C(C)C | 39 nM | –
COC(=O)N[C@H](C(=O)N1CCC[C@H]1c1ncc(-c2ccc(-c3ccc(-c4cnc([C@@H]5CCCN5C(=O)[C@@H](NC(=O)OC)C(C)C)n4C(=O)CC4CCCCC4)cc3)cc2)n1C(=O)CC1CCCCC1)C(C)C | 110 nM | –
COC(=O)N[C@H](C(=O)N1CCC[C@H]1c1ncc(-c2ccc(-c3ccc(-c4cnc([C@@H]5CCCN5C(=O)[C@@H](NC(=O)OC)C(C)C)n4C(=O)CCC4CCCCC4)cc3)cc2)n1C(=O)CCC1CCCCC1)C(C)C | 124 nM | –
CCOC(=O)n1c(-c2ccc(-c3ccc(-c4cnc([C@@H]5CCCN5C(=O)[C@@H](NC(=O)OC)C(C)C)n4C(=O)OCC)cc3)cc2)cnc1[C@@H]1CCCN1C(=O)[C@@H](NC(=O)OC)C(C)C | > 100000 nM | –
COC(=O)N[C@H](C(=O)N1CCC[C@H]1c1ncc(-c2ccc(-c3ccc(-c4cnc([C@@H]5CCCN5C(=O)[C@@H](NC(=O)OC)C(C)C)n4C(=O)CCC4CCCC4)cc3)cc2)n1C(=O)CCC1CCCC1)C(C)C | 195 nM | –
COC(=O)N[C@H](C(=O)N1CCC[C@H]1c1ncc(-c2ccc(-c3ccc(-c4cnc([C@@H]5CCCN5C(=O)[C@@H](NC(=O)OC)C(C)C)n4C(=O)CC(C)(C)C)cc3)cc2)n1C(=O)CC(C)(C)C)C(C)C | > 100000 nM | –
COC(=O)N[C@H](C(=O)N1CCC[C@H]1c1ncc(-c2ccc(-c3ccc(-c4cnc([C@@H]5CCCN5C(=O)[C@@H](NC(=O)OC)C(C)C)n4C(=O)c4ccccc4)cc3)cc2)n1C(=O)c1ccccc1)C(C)C | 155 nM | –
COC(=O)N[C@H](C(=O)N1CCC[C@H]1c1ncc(-c2ccc(-c3ccc(-c4cnc([C@@H]5CCCN5C(=O)[C@@H](NC(=O)OC)C(C)C)n4C(=O)C(C)C)cc3)cc2)n1C(=O)C(C)C)C(C)C | 131 nM | –
COC(=O)N[C@H](C(=O)N1CCC[C@H]1c1ncc(-c2ccc(-c3ccc(-c4cnc([C@@H]5CCCN5C(=O)[C@@H](NC(=O)OC)C(C)C)n4C(=O)CC(C)CC(C)(C)C)cc3)cc2)n1C(=O)CC(C)CC(C)(C)C)C(C)C (some centres not stated) | > 100000 nM | –
CCCCC(=O)n1c(-c2ccc(-c3ccc(-c4cnc([C@@H]5CCCN5C(=O)[C@@H](NC(=O)OC)C(C)C)n4C(=O)CCCC)cc3)cc2)cnc1[C@@H]1CCCN1C(=O)[C@@H](NC(=O)OC)C(C)C | 231 nM | –
COC(=O)N[C@H](C(=O)N1CCC[C@H]1c1ncc(-c2ccc(-c3ccc(-c4cnc([C@@H]5CCCN5C(=O)[C@@H](NC(=O)OC)C(C)C)n4C(=O)C(C)(C)C)cc3)cc2)n1C(=O)C(C)(C)C)C(C)C | > 100000 nM | –
COC(=O)N[C@H](C(=O)N1CCC[C@H]1c1ncc(-c2ccc(-c3ccc(-c4cnc([C@@H]5CCCN5C(=O)[C@@H](NC(=O)OC)C(C)C)n4C(=O)c4ccc(Cl)cc4)cc3)cc2)n1C(=O)c1ccc(Cl)cc1)C(C)C | 77 nM | –
